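How tested: cells in 96-well plates exposed to compound for 48 hours at five concentrations. At the GI50, growth is halved.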 Active and inactive are the calls of the source. Cut-off read from the data, not from the text of the source: active = GI50 up to about 1.1 µM and inactive = higher.
Tests used:
Test in all cases: growth of human tumour cells (NCI), 48 h
HOP-62 = test system: HOP-62
LOX IMVI = test system: LOX IMVI
EKVX = test system: EKVX
SF-539 = test system: SF-539
SF-268 = test system: SF-268
HCT-116 = test system: HCT-116
RPMI-8226 = test system: RPMI-8226
Malme-3M = test system: Malme-3M
ACHN = test system: ACHN
SK-MEL-2 = test system: SK-MEL-2
M19-MEL = test system: M19-MEL
SW-620 = test system: SW-620
A498 = test system: A498
CCRF-CEM = test system: CCRF-CEM
SK-MEL-28 = test system: SK-MEL-28
IGROV-1 = test system: IGROV-1
KM12 = test system: KM12
SN12C = test system: SN12C

Measured: GI50

O=C(Nc1cccc(NC(=O)c2cc(=O)c3ccccc3o2)n1)c1cc(=O)c2ccccc2o1
inactive: HOP-62 90.8 µM | LOX IMVI 6.1 µM | EKVX 57.4 µM | SF-539 20.3 µM | SF-268 13.5 µM | HCT-116 27.1 µM | RPMI-8226 23.3 µM | Malme-3M > 100 µM | ACHN 8.32 µM | SK-MEL-2 > 100 µM | M19-MEL > 100 µM | SW-620 > 100 µM | A498 75.5 µM | CCRF-CEM 42.2 µM | SK-MEL-28 62.4 µM | IGROV-1 38.2 µM | KM12 17.9 µM

Oc1ccc(O)c(-n2cccn2)c1
inactive: HOP-62 > 100 µM | LOX IMVI 52.7 µM | EKVX > 100 µM | SF-539 > 100 µM | SF-268 85.9 µM | RPMI-8226 25.6 µM | Malme-3M > 100 µM | ACHN > 100 µM | SK-MEL-2 37 µM | M19-MEL 30 µM | SN12C 94.4 µM | SW-620 29.3 µM | A498 > 100 µM | CCRF-CEM 20.6 µM | SK-MEL-28 > 100 µM | IGROV-1 > 100 µM | KM12 > 100 µM

O=C(CCc1nnc2s/c(=C\c3ccc([N+](=O)[O-])cc3)c(=O)n12)Nc1ccc(Cl)c(Cl)c1
inactive: HOP-62 20.3 µM | LOX IMVI 15.3 µM | SF-539 17.9 µM | SF-268 18.5 µM | HCT-116 32.1 µM | RPMI-8226 20.6 µM | Malme-3M 29.4 µM | ACHN 36.4 µM | SK-MEL-2 27.7 µM | M19-MEL 31.6 µM | SN12C 25.2 µM | SW-620 25.2 µM | A498 85.3 µM | CCRF-CEM 20.2 µM | SK-MEL-28 21.8 µM | IGROV-1 24.7 µM | KM12 16 µM

Cc1ccccc1NC(=O)C(=O)C(c1cnc2ccc([N+](=O)[O-])cc2n1)[N+](=O)[O-] (stereo not drawn)
inactive: HOP-62 > 100 µM | LOX IMVI > 100 µM | EKVX > 100 µM | SF-539 > 100 µM | SF-268 > 100 µM | HCT-116 > 100 µM | RPMI-8226 31.7 µM | Malme-3M > 100 µM | ACHN > 100 µM | SK-MEL-2 > 100 µM | M19-MEL 83 µM | SN12C > 100 µM | SW-620 > 100 µM | A498 > 100 µM | CCRF-CEM 25.5 µM | SK-MEL-28 > 100 µM | IGROV-1 > 100 µM | KM12 > 100 µM

N#C/C1=C(\N)CCSSSC1
inactive: HOP-62 29.2 µM | LOX IMVI 42.4 µM | EKVX 45.9 µM | SF-539 33.4 µM | SF-268 42.9 µM | HCT-116 40.2 µM | RPMI-8226 44.8 µM | Malme-3M 34.5 µM | ACHN 41.7 µM | SK-MEL-2 25.8 µM | M19-MEL 32.1 µM | SN12C 36.3 µM | SW-620 44.6 µM | A498 28.9 µM | CCRF-CEM 48.9 µM | SK-MEL-28 43.6 µM | IGROV-1 29.7 µM | KM12 51.1 µM

CC(=O)Nc1ccccc1[S+]([O-])c1ccccc1 (stereo not drawn)
inactive: HOP-62 > 100 µM | LOX IMVI > 100 µM | EKVX > 100 µM | SF-539 > 100 µM | SF-268 > 100 µM | HCT-116 > 100 µM | RPMI-8226 > 100 µM | Malme-3M > 100 µM | ACHN > 100 µM | SK-MEL-2 > 100 µM | M19-MEL > 100 µM | SN12C > 100 µM | SW-620 > 100 µM | A498 > 100 µM | CCRF-CEM > 100 µM | SK-MEL-28 > 100 µM | IGROV-1 > 100 µM | KM12 > 100 µM

C#CCN(C)C(=O)N(CC#C)N=O
inactive: HOP-62 > 100 µM | LOX IMVI > 100 µM | EKVX > 100 µM | SF-539 > 100 µM | SF-268 > 100 µM | HCT-116 > 100 µM | RPMI-8226 > 100 µM | Malme-3M > 100 µM | ACHN > 100 µM | SK-MEL-2 > 100 µM | M19-MEL > 100 µM | SN12C > 100 µM | SW-620 > 100 µM | A498 > 100 µM | CCRF-CEM > 100 µM | SK-MEL-28 > 100 µM | IGROV-1 > 100 µM | KM12 > 100 µM

CCc1cc(Cc2cc(CC)c(NC(=O)C3=CC(=O)CC(c4ccc(OC)cc4)O3)c(CC)c2Cl)c(Cl)c(CC)c1NC(=O)C1=CC(=O)CC(c2ccc(OC)cc2)O1 (stereo not drawn)
inactive: HOP-62 22.2 µM | LOX IMVI 18.1 µM | EKVX 30.5 µM | SF-539 20.2 µM | SF-268 25.9 µM | HCT-116 16.7 µM | RPMI-8226 15.5 µM | Malme-3M 19.1 µM | ACHN 17.9 µM | SK-MEL-2 17.3 µM | M19-MEL 17.3 µM | SN12C 22 µM | SW-620 5.9 µM | A498 21.7 µM | CCRF-CEM 28.1 µM | SK-MEL-28 23.3 µM | IGROV-1 22.4 µM | KM12 10.5 µM

Cc1ccc(S(=O)(=O)n2cc(/C=C/C#N)c(/C=C/C#N)c2)cc1
inactive: HOP-62 > 100 µM | LOX IMVI 56.6 µM | EKVX 85.1 µM | SF-539 > 100 µM | SF-268 54 µM | RPMI-8226 > 100 µM | Malme-3M > 100 µM | ACHN 72.8 µM | SK-MEL-2 74.3 µM | M19-MEL > 100 µM | SN12C > 100 µM | SW-620 40 µM | A498 50.5 µM | CCRF-CEM 43.8 µM | SK-MEL-28 > 100 µM | IGROV-1 > 100 µM | KM12 48.4 µM

NC(=O)c1cccc(C2OC(COP(=O)(O)O)C(O)C2O)c1 (stereo not drawn)
inactive: HOP-62 > 50 µM | LOX IMVI > 50 µM | EKVX > 50 µM | SF-539 15.8 µM | SF-268 36.9 µM | HCT-116 > 50 µM | RPMI-8226 > 50 µM | Malme-3M > 50 µM | ACHN > 50 µM | SK-MEL-2 > 50 µM | M19-MEL > 50 µM | SN12C > 50 µM | SW-620 42.9 µM | A498 > 50 µM | CCRF-CEM 9.93 µM | SK-MEL-28 45.9 µM | IGROV-1 > 50 µM | KM12 > 50 µM

CC(=O)O[C@H]1CCN2C(=O)C=CC(OCc3ccccc3)C12 (stereo partly drawn)
inactive: HOP-62 > 100 µM | LOX IMVI > 100 µM | EKVX > 100 µM | SF-539 > 100 µM | SF-268 > 100 µM | RPMI-8226 > 100 µM | Malme-3M > 100 µM | ACHN > 100 µM | SK-MEL-2 > 100 µM | M19-MEL > 100 µM | SN12C > 100 µM | SW-620 > 100 µM | A498 > 100 µM | CCRF-CEM > 100 µM | SK-MEL-28 > 100 µM | IGROV-1 > 100 µM | KM12 > 100 µM

Source: ChEMBL document CHEMBL1201862, “PubChem BioAssay data set” (2004)
